The values that follow come from patent US10246426B2, “Triazole compounds as T-type calcium channel blockers” (IDORSIA PHARMACEUTICALS LTD, priority 2014, dated 2019).

What is called IC50 is the point on the concentration scale where inhibition reaches its midpoint.

The target in the assay is Cav3.2 (Homo sapiens, UniProt O95180). The experiment in a line: Calcium flux FLIPR assay, HEK293 cells recombinantly expressing Cav3.2. Type of assay: cell-based. The settings on record: Cav3.2-channel, Ca2+ entry stimulated by 10 mM CaCl2. In outline: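 Fluo-4-loaded HEK293 cells stably expressing Cav3.2, seeded overnight at 37 °C; compounds diluted in TEAC buffer (pH 7.2) and preincubated 3 min before Ca2+ entry triggered with CaCl2 at 10 mM final. Area under FLIPR fluorescence trace fitted sigmoidally; IC50 relative to vehicle signal.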
Sequence of Cav3.2 (O95180 whole entry, looked up): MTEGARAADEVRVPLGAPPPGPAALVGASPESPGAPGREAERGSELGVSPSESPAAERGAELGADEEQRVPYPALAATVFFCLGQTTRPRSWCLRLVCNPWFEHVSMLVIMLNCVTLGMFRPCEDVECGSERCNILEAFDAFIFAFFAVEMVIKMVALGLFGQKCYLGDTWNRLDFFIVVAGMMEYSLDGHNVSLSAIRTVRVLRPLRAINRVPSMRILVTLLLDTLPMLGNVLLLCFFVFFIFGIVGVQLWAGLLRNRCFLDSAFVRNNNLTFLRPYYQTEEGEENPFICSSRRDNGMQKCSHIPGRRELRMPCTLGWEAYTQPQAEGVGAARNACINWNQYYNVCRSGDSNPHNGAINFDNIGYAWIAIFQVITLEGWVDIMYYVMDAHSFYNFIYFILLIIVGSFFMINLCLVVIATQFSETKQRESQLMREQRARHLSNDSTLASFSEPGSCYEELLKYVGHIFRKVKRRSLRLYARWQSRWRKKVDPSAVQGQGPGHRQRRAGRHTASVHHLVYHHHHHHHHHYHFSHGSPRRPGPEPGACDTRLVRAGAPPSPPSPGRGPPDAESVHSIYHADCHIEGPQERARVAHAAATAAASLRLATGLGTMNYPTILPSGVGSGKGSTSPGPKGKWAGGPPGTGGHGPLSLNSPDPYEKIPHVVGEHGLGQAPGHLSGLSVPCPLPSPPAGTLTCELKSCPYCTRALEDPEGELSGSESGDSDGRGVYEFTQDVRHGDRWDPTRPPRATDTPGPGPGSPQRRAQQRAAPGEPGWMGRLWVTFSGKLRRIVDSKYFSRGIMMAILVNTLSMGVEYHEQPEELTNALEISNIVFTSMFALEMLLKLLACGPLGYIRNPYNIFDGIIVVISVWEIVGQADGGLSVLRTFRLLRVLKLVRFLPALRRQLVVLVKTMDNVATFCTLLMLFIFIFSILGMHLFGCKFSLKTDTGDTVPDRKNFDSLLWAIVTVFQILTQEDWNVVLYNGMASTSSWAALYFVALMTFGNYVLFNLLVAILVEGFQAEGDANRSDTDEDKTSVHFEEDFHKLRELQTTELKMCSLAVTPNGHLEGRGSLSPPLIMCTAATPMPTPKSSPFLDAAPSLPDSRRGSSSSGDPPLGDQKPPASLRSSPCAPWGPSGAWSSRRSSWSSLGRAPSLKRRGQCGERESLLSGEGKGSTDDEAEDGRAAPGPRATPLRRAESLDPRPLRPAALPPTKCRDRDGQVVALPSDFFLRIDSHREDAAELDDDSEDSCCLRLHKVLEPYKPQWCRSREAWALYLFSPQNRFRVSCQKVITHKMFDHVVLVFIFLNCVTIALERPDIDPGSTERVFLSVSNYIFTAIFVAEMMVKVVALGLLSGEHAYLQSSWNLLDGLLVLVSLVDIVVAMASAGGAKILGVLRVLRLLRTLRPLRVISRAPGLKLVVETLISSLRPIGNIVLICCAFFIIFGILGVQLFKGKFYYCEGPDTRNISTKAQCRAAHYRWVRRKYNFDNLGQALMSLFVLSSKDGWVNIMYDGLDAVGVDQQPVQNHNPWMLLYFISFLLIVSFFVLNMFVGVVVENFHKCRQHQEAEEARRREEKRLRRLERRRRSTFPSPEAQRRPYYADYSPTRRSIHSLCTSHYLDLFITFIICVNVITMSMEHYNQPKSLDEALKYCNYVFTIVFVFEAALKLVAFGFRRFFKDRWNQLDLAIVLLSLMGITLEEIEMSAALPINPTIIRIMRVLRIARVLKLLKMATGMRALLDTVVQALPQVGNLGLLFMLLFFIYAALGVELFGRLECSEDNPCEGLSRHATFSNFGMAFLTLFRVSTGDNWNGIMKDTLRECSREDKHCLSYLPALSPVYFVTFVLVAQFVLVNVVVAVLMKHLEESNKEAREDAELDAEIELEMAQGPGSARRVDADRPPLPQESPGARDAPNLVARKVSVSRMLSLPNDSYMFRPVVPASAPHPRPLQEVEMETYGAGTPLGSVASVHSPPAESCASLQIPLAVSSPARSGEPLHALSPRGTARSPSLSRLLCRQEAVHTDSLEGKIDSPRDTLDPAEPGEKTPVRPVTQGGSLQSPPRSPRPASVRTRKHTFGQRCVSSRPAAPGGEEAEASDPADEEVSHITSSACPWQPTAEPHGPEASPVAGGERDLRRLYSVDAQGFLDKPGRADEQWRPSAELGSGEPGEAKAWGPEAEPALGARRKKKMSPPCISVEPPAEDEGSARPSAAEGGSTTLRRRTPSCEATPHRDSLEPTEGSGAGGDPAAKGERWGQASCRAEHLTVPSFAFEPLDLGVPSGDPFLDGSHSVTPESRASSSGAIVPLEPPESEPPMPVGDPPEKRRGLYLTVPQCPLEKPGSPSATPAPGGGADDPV

With `N#Cc1ccc(Cn2ncc(NC(=O)Cc3ccc(OC4CC(F)(F)C4)cc3)n2)cc1` [Example 196, N-[2-(4-Cyano-benzyl)-2H-[1,2,3]triazol-4-yl]-2-[4-(3,3-difluoro-cyclobutoxy)-phenyl]-acetamide], the IC50 amounted to 41 nM. The same measure for `CC1(COc2ccc(CC(=O)Nc3cnn(Cc4ccc(C#N)cc4)n3)cc2)CC(F)(F)C1` [Example 197, N-[2-(4-Cyano-benzyl)-2H-[1,2,3]triazol-4-yl]-2-[4-(3,3-difluoro-1-methyl-cyclobutylmethoxy)-phenyl]-acetamide]: 52 nM. As to `N#Cc1ccc(Cn2ncc(NC(=O)Cc3ccc(C4(F)COC4)cc3)n2)cc1` [Example 198, N-[2-(4-Cyano-benzyl)-2H-[1,2,3]triazol-4-yl]-2-[4-(3-fluoro-oxetan-3-yl)-phenyl]-acetamide], the IC50 stood at 130 nM. The same measure for `Cc1cc(CC(=O)Nc2cnn(Cc3ccc(C#N)c(F)c3)n2)ccc1OCC(F)(F)F` [Example 199, N-[2-(4-Cyano-3-fluoro-benzyl)-2H-[1,2,3]triazol-4-yl]-2-[3-methyl-4-(2,2,2-trifluoro-ethoxy)-phenyl]-acetamide]: 17 nM; for `Cc1ccc(Cn2ncc(NC(=O)Cc3ccc(OCC4(F)COC4)cc3)n2)cc1C#N` [Example 200, N-[2-(3-Cyano-4-methyl-benzyl)-2H-[1,2,3]triazol-4-yl]-2-[4-(3-fluoro-oxetan-3-ylmethoxy)-phenyl]-acetamide]: 410 nM; for `Cc1ccc(Cn2ncc(NC(=O)Cc3ccc(C4(F)COC4)cc3)n2)cc1C#N` [Example 201, N-[2-(3-Cyano-4-methyl-benzyl)-2H-[1,2,3]triazol-4-yl]-2-[4-(3-fluoro-oxetan-3-yl)-phenyl]-acetamide]: 310 nM. In the case of `COc1ccc(Cn2ncc(NC(=O)Cc3ccc(C(C)(C)C)cc3)n2)cc1C#N` [Example 202, 2-(4-tert-Butyl-phenyl)-N-[2-(3-cyano-4-methoxy-benzyl)-2H-[1,2,3]triazol-4-yl]-acetamide] it was 320 nM.

In the case of `COc1ccc(Cn2ncc(NC(=O)Cc3ccc(C4(C(F)(F)F)CC4)cc3)n2)cc1C#N` [Example 203, N-[2-(3-Cyano-4-methoxy-benzyl)-2H-[1,2,3]triazol-4-yl]-2-[4-(1-trifluoromethyl-cyclopropyl)-phenyl]-acetamide], the IC50 was 220 nM. The same measure for `Cc1ccc(Cn2ncc(NC(=O)Cc3ccc4c(cnn4C)c3)n2)cc1C#N` [Example 204, N-[2-(3-Cyano-4-methyl-benzyl)-2H-[1,2,3]triazol-4-yl]-2-(1-methyl-1H-indazol-5-yl)-acetamide]: 280 nM; for `COc1ccc(Cn2ncc(NC(=O)Cc3ccc(C(C)C)cc3)n2)cc1C#N` [Example 205, N-[2-(3-Cyano-4-methoxy-benzyl)-2H-[1,2,3]triazol-4-yl]-2-(4-isopropyl-phenyl)-acetamide]: 160 nM. The same measure for `COC1(c2ccc(CC(=O)Nc3cnn(Cc4ccc(C)c(C#N)c4)n3)cc2)COC1` [Example 206, N-[2-(3-Cyano-4-methyl-benzyl)-2H-[1,2,3]triazol-4-yl]-2-[4-(3-methoxy-oxetan-3-yl)-phenyl]-acetamide]: 900 nM; for `COc1ccc(Cn2ncc(NC(=O)Cc3ccc(N4CCC(F)(F)C4)nc3)n2)cc1C#N` [Example 207, N-[2-(3-Cyano-4-methoxy-benzyl)-2H-[1,2,3]triazol-4-yl]-2-[6-(3,3-difluoro-pyrrolidin-1-yl)-pyridin-3-yl]-acetamide]: 130 nM; for `COc1ccc(Cn2ncc(NC(=O)Cc3ccc4c(cnn4C)c3)n2)cc1C#N` [Example 208, N-[2-(3-Cyano-4-methoxy-benzyl)-2H-[1,2,3]triazol-4-yl]-2-(1-methyl-1H-indazol-5-yl)-acetamide]: 600 nM. The same measure for `Cc1ccc(Cn2ncc(NC(=O)Cc3ccc(OC4CC(F)(F)C4)cc3)n2)cc1C#N` [Example 209, N-[2-(3-Cyano-4-methyl-benzyl)-2H-[1,2,3]triazol-4-yl]-2-[4-(3,3-difluoro-cyclobutoxy)-phenyl]-acetamide]: 180 nM; for `COc1cc(Cn2ncc(NC(=O)Cc3ccc4c(c3)c(C)nn4C)n2)cc(F)c1F` [Example 210, N-[2-(3,4-Difluoro-5-methoxy-benzyl)-2H-[1,2,3]triazol-4-yl]-2-(1,3-dimethyl-1H-indazol-5-yl)-acetamide]: 260 nM.

`Cc1ccc(Cn2ncc(NC(=O)Cc3ccc(N4CCC(F)(F)C4)nc3)n2)cc1C#N` [Example 211, N-[2-(3-Cyano-4-methyl-benzyl)-2H-[1,2,3]triazol-4-yl]-2-[6-(3,3-difluoro-pyrrolidin-1-yl)-pyridin-3-yl]-acetamide]: the half-inhibitory concentration (IC50) amounted to 82 nM. In the case of `COc1cc(Cn2ncc(NC(=O)Cc3ccc4c(cnn4C)c3)n2)cc(F)c1F` [Example 212, N-[2-(3,4-Difluoro-5-methoxy-benzyl)-2H-[1,2,3]triazol-4-yl]-2-(1-methyl-1H-indazol-5-yl)-acetamide] it was 230 nM. For `Cc1ccc(Cn2ncc(NC(=O)Cc3ccc(N4CCCC4)nc3)n2)cc1C#N` [Example 213, N-[2-(3-Cyano-4-methyl-benzyl)-2H-[1,2,3]triazol-4-yl]-2-(6-pyrrolidin-1-yl-pyridin-3-yl)-acetamide], the IC50 came out at 120 nM.

Consider `COc1ccc(Cn2ncc(NC(=O)Cc3ccc(C4(F)COC4)cc3)n2)cc1C#N` [Example 214, N-[2-(3-Cyano-4-methoxy-benzyl)-2H-[1,2,3]triazol-4-yl]-2-[4-(3-fluoro-oxetan-3-yl)-phenyl]-acetamide], for which the IC50 was found to be 250 nM. The same measure for `Cc1ccc(Cn2ncc(NC(=O)Cc3ccc4cnn(C)c4c3)n2)cc1C#N` [Example 215, N-[2-(3-Cyano-4-methyl-benzyl)-2H-[1,2,3]triazol-4-yl]-2-(1-methyl-1H-indazol-6-yl)-acetamide]: 650 nM; for `Cc1ccc(Cn2ncc(NC(=O)Cc3ccc(C(C)C)cc3)n2)cc1C#N` [Example 216, N-[2-(3-Cyano-4-methyl-benzyl)-2H-[1,2,3]triazol-4-yl]-2-(4-isopropyl-phenyl)-acetamide]: 74 nM; for `Cc1ccc(Cn2ncc(NC(=O)Cc3ccc(C(C)(C)C)cc3)n2)cc1C#N` [Example 217, 2-(4-tert-Butyl-phenyl)-N-[2-(3-cyano-4-methyl-benzyl)-2H-[1,2,3]triazol-4-yl]-acetamide]: 160 nM. Take `COc1cc(Cn2ncc(NC(=O)Cc3ccc(C(C)(C)C)cc3)n2)cc(F)c1F` [Example 218, 2-(4-tert-Butyl-phenyl)-N-[2-(3,4-difluoro-5-methoxy-benzyl)-2H-[1,2,3]triazol-4-yl]-acetamide]: the IC50 turned out to be 590 nM.

As for `COc1cc(Cn2ncc(NC(=O)Cc3ccc(N4CCC(F)(F)C4)nc3)n2)cc(F)c1F` [Example 219, N-[2-(3,4-Difluoro-5-methoxy-benzyl)-2H-[1,2,3]triazol-4-yl]-2-[6-(3,3-difluoro-pyrrolidin-1-yl)-pyridin-3-yl]-acetamide], the IC50 was 120 nM. Regarding `CCn1ncc2cc(CC(=O)Nc3cnn(Cc4cc(F)c(F)c(OC)c4)n3)ccc21` [Example 220, N-[2-(3,4-Difluoro-5-methoxy-benzyl)-2H-[1,2,3]triazol-4-yl]-2-(1-ethyl-1H-indazol-5-yl)-acetamide], the IC50 was 190 nM. Turning to `COc1cc(Cn2ncc(NC(=O)Cc3ccc(N4CCCC4)nc3)n2)cc(F)c1F` [Example 221, N-[2-(3,4-Difluoro-5-methoxy-benzyl)-2H-[1,2,3]triazol-4-yl]-2-(6-pyrrolidin-1-yl-pyridin-3-yl)-acetamide], the IC50 was 160 nM. On to `COc1cc(Cn2ncc(NC(=O)Cc3ccc(C(C)C)cc3)n2)cc(F)c1F` [Example 222, N-[2-(3,4-Difluoro-5-methoxy-benzyl)-2H-[1,2,3]triazol-4-yl]-2-(4-isopropyl-phenyl)-acetamide], for which the IC50 was determined as 300 nM. In the case of `COc1ccc(Cn2ncc(NC(=O)Cc3ccc(OC4CC(F)(F)C4)cc3)n2)cc1C#N` [Example 223, N-[2-(3-Cyano-4-methoxy-benzyl)-2H-[1,2,3]triazol-4-yl]-2-[4-(3,3-difluoro-cyclobutoxy)-phenyl]-acetamide] it was 120 nM. The same measure for `COc1cc(Cn2ncc(NC(=O)Cc3ccc(C4(F)COC4)cc3)n2)cc(F)c1F` [Example 224, N-[2-(3,4-Difluoro-5-methoxy-benzyl)-2H-[1,2,3]triazol-4-yl]-2-[4-(3-fluoro-oxetan-3-yl)-phenyl]-acetamide]: 190 nM. As to `COc1cc(Cn2ncc(NC(=O)Cc3ccc4cnn(C)c4c3)n2)cc(F)c1F` [Example 225, N-[2-(3,4-Difluoro-5-methoxy-benzyl)-2H-[1,2,3]triazol-4-yl]-2-(1-methyl-1H-indazol-6-yl)-acetamide], the IC50 was 560 nM. The same measure for `Cc1ccc(Cn2ncc(NC(=O)Cc3ccc(C4(C(F)(F)F)CC4)cc3)n2)cc1C#N` [Example 226, N-[2-(3-Cyano-4-methyl-benzyl)-2H-[1,2,3]triazol-4-yl]-2-[4-(1-trifluoromethyl-cyclopropyl)-phenyl]-acetamide]: 250 nM; for `COc1cc(Cn2ncc(NC(=O)Cc3ccc(C4(C(F)(F)F)CC4)cc3)n2)cc(F)c1F` [Example 227, N-[2-(3,4-Difluoro-5-methoxy-benzyl)-2H-[1,2,3]triazol-4-yl]-2-[4-(1-trifluoromethyl-cyclopropyl)-phenyl]-acetamide]: 770 nM; for `COc1cc(Cn2ncc(NC(=O)Cc3ccc(C4(OC)COC4)cc3)n2)cc(F)c1F` [Example 228, N-[2-(3,4-Difluoro-5-methoxy-benzyl)-2H-[1,2,3]triazol-4-yl]-2-[4-(3-methoxy-oxetan-3-yl)-phenyl]-acetamide]: 300 nM. The same measure for `COc1cc(Cn2ncc(NC(=O)Cc3ccc(OCC4(F)COC4)cc3)n2)cc(F)c1F` [Example 229, N-[2-(3,4-Difluoro-5-methoxy-benzyl)-2H-[1,2,3]triazol-4-yl]-2-[4-(3-fluoro-oxetan-3-ylmethoxy)-phenyl]-acetamide]: 130 nM.
